PubChem BioAssay (NCI)
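Where inhibition never reached the appropriate level, the endpoint shown equals the highest concentration tested. Otherwise, values were interpolated linearly from a five-concentration, 48-hour dose response in 96-well plates. At the TGI there is no net growth.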

How the values were obtained:
Experiment in all cases: NCI anticancer screen, dose series, 48 h
OVCAR-4 ovarian = system: OVCAR-4 ovarian
MDA-MB-231 breast = system: MDA-MB-231 breast
DU-145 prostate = system: DU-145 prostate
IGROV1 ovarian = system: IGROV1 ovarian
HT29 colon = system: HT29 colon
TK-10 renal = system: TK-10 renal
OVCAR-8 ovarian = system: OVCAR-8 ovarian
U251 CNS = system: U251 CNS
K-562 leukemia = system: K-562 leukemia
SF-295 CNS = system: SF-295 CNS
HCT-15 colon = system: HCT-15 colon
SNB-19 CNS = system: SNB-19 CNS
UO-31 renal = system: UO-31 renal
HS 578T breast = system: HS 578T breast
OVCAR-3 ovarian = system: OVCAR-3 ovarian
OVCAR-5 ovarian = system: OVCAR-5 ovarian
HL-60(TB) leukemia = system: HL-60(TB) leukemia
UACC-257 melanoma = system: UACC-257 melanoma
NCI-H522 lung = system: NCI-H522 lung
KM12 colon = system: KM12 colon
SK-MEL-5 melanoma = system: SK-MEL-5 melanoma
SR leukemia = system: SR leukemia
SK-MEL-28 melanoma = system: SK-MEL-28 melanoma
HCT-116 colon = system: HCT-116 colon
MALME-3M melanoma = system: MALME-3M melanoma
EKVX NSCLC = system: EKVX NSCLC
COLO 205 colon = system: COLO 205 colon
CAKI-1 renal = system: CAKI-1 renal
MOLT-4 leukemia = system: MOLT-4 leukemia
SF-539 CNS = system: SF-539 CNS
A498 renal = system: A498 renal
CCRF-CEM leukemia = system: CCRF-CEM leukemia
NCI-H23 lung = system: NCI-H23 lung
RXF 393 renal = system: RXF 393 renal
NCI-H460 lung = system: NCI-H460 lung
HOP-92 NSCLC = system: HOP-92 NSCLC
SW-620 colon = system: SW-620 colon
HOP-62 NSCLC = system: HOP-62 NSCLC
SF-268 CNS = system: SF-268 CNS
NCI/ADR-RES ovarian = system: NCI/ADR-RES ovarian
UACC-62 melanoma = system: UACC-62 melanoma
PC-3 prostate = system: PC-3 prostate
RPMI-8226 leukemia = system: RPMI-8226 leukemia
T-47D breast = system: T-47D breast
LOX IMVI melanoma = system: LOX IMVI melanoma
SN12C renal = system: SN12C renal
A549 NSCLC = system: A549 NSCLC
M14 melanoma = system: M14 melanoma
MCF7 breast = system: MCF7 breast
MDA-MB-435 = system: MDA-MB-435
NCI-H226 lung = system: NCI-H226 lung
HCC-2998 colon = system: HCC-2998 colon
BT-549 breast = system: BT-549 breast
ACHN renal = system: ACHN renal
786-0 renal = system: 786-0 renal
MDA-N = system: MDA-N
SK-MEL-2 melanoma = system: SK-MEL-2 melanoma
SK-OV-3 ovarian = system: SK-OV-3 ovarian

**Q.** Which results are given for `N#Cc1c(Cl)cccc1Oc1ccc(S(=O)(=O)/N=C(\NO)Nc2ccc(Cl)cc2)cc1`?
**A.** TGI (OVCAR-4 ovarian): 31.4 µM; TGI (MDA-MB-231 breast): 37.4 µM; TGI (DU-145 prostate): 32.9 µM; TGI (IGROV1 ovarian): 34.4 µM; TGI (HT29 colon): 31.5 µM; TGI (TK-10 renal): 30.7 µM; TGI (OVCAR-8 ovarian): 43.5 µM; TGI (U251 CNS): 33.1 µM; TGI (K-562 leukemia): 53.6 µM; TGI (SF-295 CNS): 32.3 µM; TGI (HCT-15 colon): 34.1 µM; TGI (SNB-19 CNS): 30 µM; TGI (UO-31 renal): 27.2 µM; TGI (HS 578T breast): 71.1 µM; TGI (OVCAR-3 ovarian): 29.2 µM; TGI (OVCAR-5 ovarian): 34.9 µM; TGI (HL-60(TB) leukemia): 37.8 µM; TGI (UACC-257 melanoma): 32.1 µM; TGI (NCI-H522 lung): 35.6 µM; TGI (KM12 colon): 31.2 µM; TGI (SK-MEL-5 melanoma): 31 µM; TGI (SR leukemia): 78.2 µM; TGI (SK-MEL-28 melanoma): 41 µM; TGI (HCT-116 colon): 27.2 µM; TGI (MALME-3M melanoma): 33.9 µM; TGI (EKVX NSCLC): 29 µM; TGI (COLO 205 colon): 33.6 µM; TGI (CAKI-1 renal): 29.2 µM; TGI (MOLT-4 leukemia): 44.1 µM; TGI (SF-539 CNS): 32.3 µM; TGI (A498 renal): 30.6 µM; TGI (CCRF-CEM leukemia): 43.9 µM; TGI (NCI-H23 lung): 34.6 µM; TGI (RXF 393 renal): 32.2 µM; TGI (NCI-H460 lung): 36.4 µM; TGI (HOP-92 NSCLC): 24.6 µM; TGI (SW-620 colon): 34.8 µM; TGI (HOP-62 NSCLC): 34.1 µM; TGI (SF-268 CNS): 46.9 µM; TGI (NCI/ADR-RES ovarian): 48 µM; TGI (UACC-62 melanoma): 29.3 µM; TGI (PC-3 prostate): 30.6 µM; TGI (RPMI-8226 leukemia): 71.2 µM; TGI (T-47D breast): 28.3 µM; TGI (LOX IMVI melanoma): 32 µM; TGI (SN12C renal): 29.4 µM; TGI (A549 NSCLC): 32.2 µM; TGI (M14 melanoma): 29.2 µM; TGI (MCF7 breast): 46.2 µM; TGI (MDA-MB-435): 31.7 µM; TGI (NCI-H226 lung): 48 µM; TGI (HCC-2998 colon): 29 µM; TGI (BT-549 breast): 30.9 µM; TGI (ACHN renal): 29.1 µM; TGI (786-0 renal): 26.5 µM; TGI (MDA-N): 29.9 µM; TGI (SK-MEL-2 melanoma): 38.5 µM

**Q.** For `CCOC(=O)N(C)CCC1CC=CC(=O)C1c1cccc(OC)c1OC` (stereo not drawn), which TGI (OVCAR-4 ovarian) is on record?
**A.** > 100 µM

**Q.** What about the TGI (MDA-MB-231 breast) of the same compound?
**A.** > 100 µM

**Q.** And the TGI (DU-145 prostate)?
**A.** 44.4 µM

**Q.** And the TGI (IGROV1 ovarian)?
**A.** > 100 µM

**Q.** And the TGI (HT29 colon)?
**A.** 34.1 µM

**Q.** What about the TGI (TK-10 renal) of the same compound?
**A.** 65.3 µM

**Q.** And the TGI (OVCAR-8 ovarian)?
**A.** > 100 µM

**Q.** And the TGI (U251 CNS)?
**A.** 43 µM

**Q.** What about the TGI (K-562 leukemia) of the same compound?
**A.** > 100 µM

**Q.** And the TGI (SF-295 CNS)?
**A.** 98.8 µM

**Q.** What about the TGI (HCT-15 colon) of the same compound?
**A.** 31.1 µM

**Q.** And the TGI (SNB-19 CNS)?
**A.** 85.6 µM

**Q.** And the TGI (UO-31 renal)?
**A.** 35.9 µM

**Q.** What about the TGI (HS 578T breast) of the same compound?
**A.** > 100 µM

**Q.** What about the TGI (OVCAR-3 ovarian) of the same compound?
**A.** 38.8 µM

**Q.** What about the TGI (SK-OV-3 ovarian) of the same compound?
**A.** > 100 µM

**Q.** And the TGI (OVCAR-5 ovarian)?
**A.** 46.7 µM

**Q.** And the TGI (HL-60(TB) leukemia)?
**A.** 52.5 µM

**Q.** And the TGI (UACC-257 melanoma)?
**A.** 39.3 µM

**Q.** And the TGI (NCI-H522 lung)?
**A.** 27.5 µM

**Q.** And the TGI (KM12 colon)?
**A.** 33.6 µM

**Q.** And the TGI (SK-MEL-5 melanoma)?
**A.** 22 µM

**Q.** What about the TGI (SR leukemia) of the same compound?
**A.** 67.1 µM

**Q.** And the TGI (HCT-116 colon)?
**A.** 27.6 µM

**Q.** And the TGI (MALME-3M melanoma)?
**A.** 60.1 µM

**Q.** What about the TGI (EKVX NSCLC) of the same compound?
**A.** 89.8 µM

**Q.** What about the TGI (COLO 205 colon) of the same compound?
**A.** 17.8 µM

**Q.** And the TGI (CAKI-1 renal)?
**A.** 91.6 µM

**Q.** And the TGI (MOLT-4 leukemia)?
**A.** 64.5 µM

**Q.** And the TGI (SF-539 CNS)?
**A.** > 100 µM

**Q.** What about the TGI (A498 renal) of the same compound?
**A.** > 100 µM

**Q.** What about the TGI (CCRF-CEM leukemia) of the same compound?
**A.** 35.7 µM

**Q.** What about the TGI (NCI-H23 lung) of the same compound?
**A.** 36.3 µM

**Q.** And the TGI (RXF 393 renal)?
**A.** 27.5 µM

**Q.** What about the TGI (NCI-H460 lung) of the same compound?
**A.** 48.2 µM

**Q.** And the TGI (HOP-92 NSCLC)?
**A.** > 100 µM

**Q.** What about the TGI (SW-620 colon) of the same compound?
**A.** > 100 µM

**Q.** What about the TGI (HOP-62 NSCLC) of the same compound?
**A.** > 100 µM

**Q.** What about the TGI (SF-268 CNS) of the same compound?
**A.** 60 µM

**Q.** And the TGI (NCI/ADR-RES ovarian)?
**A.** 80.1 µM

**Q.** And the TGI (UACC-62 melanoma)?
**A.** 32.5 µM

**Q.** What about the TGI (PC-3 prostate) of the same compound?
**A.** > 100 µM

**Q.** What about the TGI (RPMI-8226 leukemia) of the same compound?
**A.** 46.6 µM

**Q.** And the TGI (T-47D breast)?
**A.** 77.1 µM

**Q.** What about the TGI (LOX IMVI melanoma) of the same compound?
**A.** > 100 µM

**Q.** And the TGI (SN12C renal)?
**A.** 39.7 µM

**Q.** And the TGI (A549 NSCLC)?
**A.** 91 µM

**Q.** And the TGI (M14 melanoma)?
**A.** 55 µM

**Q.** What about the TGI (MCF7 breast) of the same compound?
**A.** 56.6 µM

**Q.** What about the TGI (MDA-MB-435) of the same compound?
**A.** 28.8 µM

**Q.** What about the TGI (HCC-2998 colon) of the same compound?
**A.** 25.8 µM

**Q.** What about the TGI (BT-549 breast) of the same compound?
**A.** 34.3 µM

**Q.** And the TGI (ACHN renal)?
**A.** > 100 µM

**Q.** What about the TGI (786-0 renal) of the same compound?
**A.** 45.7 µM

**Q.** And the TGI (MDA-N)?
**A.** 36.4 µM

**Q.** And the TGI (SK-MEL-2 melanoma)?
**A.** 35 µM
